Tests used:
Assay in all cases: biochemical
NIK = NIK (Homo sapiens, UniProt Q99558); conditions: read-out: CPT-1-70-1 (1μM) % control
PKAC-beta = PKAC-beta (Homo sapiens, UniProt P22694); conditions: read-out: CPT-1-70-1 (1μM) % control
PIP5K1A = PIP5K1A (Homo sapiens, UniProt Q99755); conditions: read-out: CPT-1-70-1 (1μM) % control
WNK1 = WNK1 (Homo sapiens, UniProt Q9H4A3); conditions: read-out: CPT-1-70-1 (1μM) % control
PKMYT1 = PKMYT1 (Homo sapiens, UniProt Q99640); conditions: read-out: CPT-1-70-1 (1μM) % control
PKN1 = PKN1 (Homo sapiens, UniProt Q16512); conditions: read-out: CPT-1-70-1 (1μM) % control
Sequence of PKN1 (Q16512 whole entry): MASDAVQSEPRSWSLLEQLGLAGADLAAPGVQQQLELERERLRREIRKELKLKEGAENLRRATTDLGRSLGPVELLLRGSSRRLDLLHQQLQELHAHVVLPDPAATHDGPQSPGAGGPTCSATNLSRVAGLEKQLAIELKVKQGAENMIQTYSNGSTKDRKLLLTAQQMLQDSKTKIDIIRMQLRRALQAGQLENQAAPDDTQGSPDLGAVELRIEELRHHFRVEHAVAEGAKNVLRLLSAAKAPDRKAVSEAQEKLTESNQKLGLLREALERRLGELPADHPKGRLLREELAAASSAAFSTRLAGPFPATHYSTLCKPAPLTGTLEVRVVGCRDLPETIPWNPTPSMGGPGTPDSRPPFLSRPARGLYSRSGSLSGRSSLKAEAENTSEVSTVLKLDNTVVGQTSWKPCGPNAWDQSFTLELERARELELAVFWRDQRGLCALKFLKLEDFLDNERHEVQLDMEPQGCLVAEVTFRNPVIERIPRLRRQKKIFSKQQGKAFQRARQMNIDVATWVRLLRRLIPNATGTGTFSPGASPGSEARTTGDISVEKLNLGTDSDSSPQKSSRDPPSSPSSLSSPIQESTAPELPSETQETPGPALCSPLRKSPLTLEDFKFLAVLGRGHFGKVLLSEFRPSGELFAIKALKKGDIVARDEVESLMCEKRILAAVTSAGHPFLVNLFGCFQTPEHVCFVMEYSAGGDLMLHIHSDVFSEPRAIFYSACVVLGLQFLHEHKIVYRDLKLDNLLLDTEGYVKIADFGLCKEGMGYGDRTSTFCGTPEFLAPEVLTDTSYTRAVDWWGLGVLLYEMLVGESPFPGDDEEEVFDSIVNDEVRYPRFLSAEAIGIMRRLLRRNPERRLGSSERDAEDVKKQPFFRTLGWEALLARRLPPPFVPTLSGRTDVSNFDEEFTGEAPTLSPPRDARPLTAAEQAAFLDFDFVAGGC

PIK3CA(Q546K) = PIK3CA(Q546K) (Homo sapiens, UniProt P42336, Q546K); conditions: read-out: CPT-1-70-1 (1μM) % control
PIP5K2B = PIP5K2B (Homo sapiens, UniProt P78356); conditions: read-out: CPT-1-70-1 (1μM) % control
Sequence of PIP5K2B (P78356 whole entry): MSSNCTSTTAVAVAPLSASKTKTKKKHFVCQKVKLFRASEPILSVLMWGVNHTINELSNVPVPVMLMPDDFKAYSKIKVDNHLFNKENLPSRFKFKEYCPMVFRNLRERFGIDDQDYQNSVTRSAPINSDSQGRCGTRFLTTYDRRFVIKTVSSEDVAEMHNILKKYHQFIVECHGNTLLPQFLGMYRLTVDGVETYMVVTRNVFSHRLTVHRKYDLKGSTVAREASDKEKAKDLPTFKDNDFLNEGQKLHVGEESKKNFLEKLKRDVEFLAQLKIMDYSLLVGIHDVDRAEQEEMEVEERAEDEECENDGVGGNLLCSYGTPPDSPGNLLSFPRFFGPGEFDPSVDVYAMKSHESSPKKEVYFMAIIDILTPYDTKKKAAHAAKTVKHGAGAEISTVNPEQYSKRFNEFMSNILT

NEK10 = NEK10 (Homo sapiens, UniProt Q6ZWH5); conditions: read-out: CPT-1-70-1 (1μM) % control
PIK3CG = PIK3CG (Homo sapiens, UniProt P48736); conditions: read-out: CPT-1-70-1 (1μM) % control
PKN2 = PKN2 (Homo sapiens, UniProt Q16513); conditions: read-out: CPT-1-70-1 (1μM) % control
PIM3 = PIM3 (Homo sapiens, UniProt Q86V86); conditions: read-out: CPT-1-70-1 (1μM) % control
WNK3 = WNK3 (Homo sapiens, UniProt Q9BYP7); conditions: read-out: CPT-1-70-1 (1μM) % control
PKAC-alpha = PKAC-alpha (Homo sapiens, UniProt P17612); conditions: read-out: CPT-1-70-1 (1μM) % control
SGK2 = SGK2 (Homo sapiens, UniProt Q9HBY8); conditions: read-out: CPT-1-70-1 (1μM) % control
PIK4CB = PIK4CB (Homo sapiens, UniProt Q9UBF8); conditions: read-out: CPT-1-70-1 (1μM) % control
PIK3CD = PIK3CD (Homo sapiens, UniProt O00329); conditions: read-out: CPT-1-70-1 (1μM) % control
Sequence of PIK3CD (O00329 whole entry): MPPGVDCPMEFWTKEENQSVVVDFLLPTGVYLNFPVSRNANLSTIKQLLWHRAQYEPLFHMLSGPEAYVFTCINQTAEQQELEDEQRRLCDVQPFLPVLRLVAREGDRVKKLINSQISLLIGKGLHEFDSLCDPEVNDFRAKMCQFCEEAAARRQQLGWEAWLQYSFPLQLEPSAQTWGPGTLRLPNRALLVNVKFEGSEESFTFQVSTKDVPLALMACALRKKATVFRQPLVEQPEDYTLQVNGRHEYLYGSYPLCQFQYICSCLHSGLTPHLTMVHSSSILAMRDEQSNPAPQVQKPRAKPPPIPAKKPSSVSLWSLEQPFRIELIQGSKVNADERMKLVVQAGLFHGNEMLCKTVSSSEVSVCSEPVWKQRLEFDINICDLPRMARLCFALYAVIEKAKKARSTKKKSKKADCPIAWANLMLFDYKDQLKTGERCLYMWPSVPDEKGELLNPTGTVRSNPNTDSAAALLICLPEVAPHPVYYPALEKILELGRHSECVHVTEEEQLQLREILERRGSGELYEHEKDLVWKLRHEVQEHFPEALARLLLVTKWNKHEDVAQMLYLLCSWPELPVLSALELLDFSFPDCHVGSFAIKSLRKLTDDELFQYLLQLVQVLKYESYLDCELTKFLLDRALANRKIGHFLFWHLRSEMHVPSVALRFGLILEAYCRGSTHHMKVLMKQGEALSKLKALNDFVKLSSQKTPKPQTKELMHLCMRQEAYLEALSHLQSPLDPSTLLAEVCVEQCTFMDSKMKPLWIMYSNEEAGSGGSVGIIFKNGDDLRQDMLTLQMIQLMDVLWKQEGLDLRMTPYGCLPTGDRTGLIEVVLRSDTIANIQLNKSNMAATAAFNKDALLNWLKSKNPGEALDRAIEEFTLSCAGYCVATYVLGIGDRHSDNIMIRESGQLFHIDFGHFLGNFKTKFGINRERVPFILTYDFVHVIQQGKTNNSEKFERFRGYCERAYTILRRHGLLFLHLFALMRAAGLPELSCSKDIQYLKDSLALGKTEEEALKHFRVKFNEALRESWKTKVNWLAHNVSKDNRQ

EPHB6 = EPHB6 (Homo sapiens, UniProt O15197); conditions: read-out: CPT-1-70-1 (1uM) % control
ERBB3 = ERBB3 (Homo sapiens, UniProt P21860); conditions: read-out: CPT-1-70-1 (1uM) % control
ERK2 = ERK2 (Homo sapiens, UniProt P28482); conditions: read-out: CPT-1-70-1 (1uM) % control
ALK(L1196M) = ALK(L1196M) (Homo sapiens, UniProt Q9UM73, L1196M); conditions: read-out: CPT-1-70-1 (1uM) % control
EPHA5 = EPHA5 (Homo sapiens, UniProt P54756); conditions: read-out: CPT-1-70-1 (1uM) % control
EPHB4 = EPHB4 (Homo sapiens, UniProt P54760); conditions: read-out: CPT-1-70-1 (1uM) % control
Sequence of EPHB4 (P54760 whole entry): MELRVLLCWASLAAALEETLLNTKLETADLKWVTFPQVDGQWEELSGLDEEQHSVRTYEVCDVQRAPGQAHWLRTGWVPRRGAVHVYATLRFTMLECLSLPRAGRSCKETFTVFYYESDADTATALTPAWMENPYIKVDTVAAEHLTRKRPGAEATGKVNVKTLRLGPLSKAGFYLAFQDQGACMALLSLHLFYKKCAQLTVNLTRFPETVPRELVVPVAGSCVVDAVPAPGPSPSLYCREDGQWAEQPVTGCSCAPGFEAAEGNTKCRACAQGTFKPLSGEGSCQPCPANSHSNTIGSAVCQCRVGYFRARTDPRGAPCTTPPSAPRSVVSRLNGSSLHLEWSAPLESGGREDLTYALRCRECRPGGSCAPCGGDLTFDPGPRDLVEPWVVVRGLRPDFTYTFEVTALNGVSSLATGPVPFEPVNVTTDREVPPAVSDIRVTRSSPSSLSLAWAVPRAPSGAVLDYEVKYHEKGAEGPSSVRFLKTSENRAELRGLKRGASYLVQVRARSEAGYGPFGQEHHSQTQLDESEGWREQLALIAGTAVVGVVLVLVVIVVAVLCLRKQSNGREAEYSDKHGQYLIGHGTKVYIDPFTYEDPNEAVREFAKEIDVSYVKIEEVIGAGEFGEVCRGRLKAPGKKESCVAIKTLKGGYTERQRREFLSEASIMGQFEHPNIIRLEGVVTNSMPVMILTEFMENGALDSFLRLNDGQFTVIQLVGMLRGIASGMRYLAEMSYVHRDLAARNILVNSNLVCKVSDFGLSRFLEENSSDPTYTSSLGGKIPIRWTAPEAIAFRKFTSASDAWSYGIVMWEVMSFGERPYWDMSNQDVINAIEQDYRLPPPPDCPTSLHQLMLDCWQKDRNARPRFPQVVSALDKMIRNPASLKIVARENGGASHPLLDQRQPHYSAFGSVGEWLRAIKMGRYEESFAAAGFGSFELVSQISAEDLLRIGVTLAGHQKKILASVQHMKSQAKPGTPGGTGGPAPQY

EPHB3 = EPHB3 (Homo sapiens, UniProt P54753); conditions: read-out: CPT-1-70-1 (1uM) % control
EPHA6 = EPHA6 (Homo sapiens, UniProt Q9UF33); conditions: read-out: CPT-1-70-1 (1uM) % control
ERK4 = ERK4 (Homo sapiens, UniProt P31152); conditions: read-out: CPT-1-70-1 (1uM) % control
EPHA3 = EPHA3 (Homo sapiens, UniProt P29320); conditions: read-out: CPT-1-70-1 (1uM) % control
ERBB4 = ERBB4 (Homo sapiens, UniProt Q15303); conditions: read-out: CPT-1-70-1 (1uM) % control
Sequence of ERBB4 (Q15303 whole entry): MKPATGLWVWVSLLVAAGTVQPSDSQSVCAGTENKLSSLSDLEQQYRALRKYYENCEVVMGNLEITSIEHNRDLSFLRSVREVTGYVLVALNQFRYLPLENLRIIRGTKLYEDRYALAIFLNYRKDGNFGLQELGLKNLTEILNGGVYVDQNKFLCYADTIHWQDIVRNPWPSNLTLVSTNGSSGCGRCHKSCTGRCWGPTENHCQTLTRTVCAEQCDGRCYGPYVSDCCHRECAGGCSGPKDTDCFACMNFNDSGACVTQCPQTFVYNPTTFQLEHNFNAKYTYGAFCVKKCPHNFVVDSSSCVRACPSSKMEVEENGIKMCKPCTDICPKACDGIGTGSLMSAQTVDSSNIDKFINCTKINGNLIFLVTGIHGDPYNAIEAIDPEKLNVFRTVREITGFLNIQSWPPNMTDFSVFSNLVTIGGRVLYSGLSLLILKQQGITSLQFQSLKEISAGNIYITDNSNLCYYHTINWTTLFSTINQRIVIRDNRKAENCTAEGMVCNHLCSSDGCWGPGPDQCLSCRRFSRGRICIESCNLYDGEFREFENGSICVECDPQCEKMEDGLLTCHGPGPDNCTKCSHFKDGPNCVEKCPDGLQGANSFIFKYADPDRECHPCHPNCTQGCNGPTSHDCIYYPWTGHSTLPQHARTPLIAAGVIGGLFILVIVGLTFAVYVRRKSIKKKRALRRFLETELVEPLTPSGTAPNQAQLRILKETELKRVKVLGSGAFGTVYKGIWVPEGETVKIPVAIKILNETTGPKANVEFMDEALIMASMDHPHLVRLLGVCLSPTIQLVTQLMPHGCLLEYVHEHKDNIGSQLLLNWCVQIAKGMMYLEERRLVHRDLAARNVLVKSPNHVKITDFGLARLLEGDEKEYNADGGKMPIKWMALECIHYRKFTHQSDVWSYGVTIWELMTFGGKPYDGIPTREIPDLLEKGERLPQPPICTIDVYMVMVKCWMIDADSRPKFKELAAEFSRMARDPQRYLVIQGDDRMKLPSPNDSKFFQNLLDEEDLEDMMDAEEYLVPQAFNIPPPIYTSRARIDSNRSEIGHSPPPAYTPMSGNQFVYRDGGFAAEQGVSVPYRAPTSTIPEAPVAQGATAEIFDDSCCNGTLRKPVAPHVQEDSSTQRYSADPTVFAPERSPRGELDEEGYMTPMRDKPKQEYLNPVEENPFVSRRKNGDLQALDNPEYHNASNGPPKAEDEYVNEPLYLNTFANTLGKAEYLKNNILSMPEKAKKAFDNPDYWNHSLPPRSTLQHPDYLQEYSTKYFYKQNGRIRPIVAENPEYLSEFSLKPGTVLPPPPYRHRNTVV

ERBB2 = ERBB2 (Homo sapiens, UniProt P04626); conditions: read-out: CPT-1-70-1 (1uM) % control

CN1CCN(c2ccc(Nc3nc(Oc4ccc(NC(=O)CCl)cc4)c4cc[nH]c4n3)cc2)CC1 [CPT1-70-1] showed a remaining activity at 1 µM (NIK) of 100%, a remaining activity at 1 µM (PKAC-beta) of 100% and a remaining activity at 1 µM (PIP5K1A) of 13%. It also gave a remaining activity at 1 µM (WNK1) of 100%, a remaining activity at 1 µM (PKMYT1) of 94% and a remaining activity at 1 µM (PKN1) of 79%. It also gave a remaining activity at 1 µM (PIK3CA(Q546K)) of 100%, a remaining activity at 1 µM (PIP5K2B) of 100% and a remaining activity at 1 µM (NEK10) of 14%. The remaining activity at 1 µM (PIK3CG) was 100%, the remaining activity at 1 µM (PKN2) was 100% and the remaining activity at 1 µM (PIM3) was 81%. For the same compound, the remaining activity at 1 µM (WNK3) was 100%, the remaining activity at 1 µM (PKAC-alpha) was 69% and the remaining activity at 1 µM (SGK2) was 100%. The remaining activity at 1 µM (PIK4CB) was 100%, the remaining activity at 1 µM (PIK3CD) was 100% and the remaining activity at 1 µM (EPHB6) was 44%. For the same compound, the remaining activity at 1 µM (ERBB3) was 53%, the remaining activity at 1 µM (ERK2) was 100% and the remaining activity at 1 µM (ALK(L1196M)) was 100%. It also gave a remaining activity at 1 µM (EPHA5) of 100%, a remaining activity at 1 µM (EPHB4) of 100% and a remaining activity at 1 µM (EPHB3) of 100%. It also gave a remaining activity at 1 µM (EPHA6) of 100%, a remaining activity at 1 µM (ERK4) of 96% and a remaining activity at 1 µM (EPHA3) of 100%. The remaining activity at 1 µM (ERBB4) was 4.6% and the remaining activity at 1 µM (ERBB2) was 57%.

Reference: publication doi:10.1101/2020.06.11.145995v1 (biorxiv, 2020)
